The record followed here is patent US9790169B2, “IDO inhibitors” (BRISTOL-MYERS SQUIBB COMPANY, priority 2015, dated 2017).

Some results are limits rather than exact numbers.

The experiment deals with human IDO1 (Homo sapiens, UniProt P14902). As to the kind of experiment: Assessment of human IDO-1 inhibitory activity in Hela cells (Interferon-gamma stimulated HeLa cells, Ehrlich reagent, absorbance 490 nm). Further details: endogenous in cells; host or cells: HeLa cells stimulated with interferon-gamma. Particulars: Hela Human IDO-1 cellular assay. Type of experiment: cell-based. In a few lines: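 HeLa cells pre-incubated with compound 1 h at 37 °C, then stimulated with human IFN-γ (10 ng/ml final) or murine IFN-γ (5 ng/ml final) for 18 h. Kynurenine read with Ehrlich reagent at 490 nm after TCA (3%) and 50 °C treatment; IC50 normalized to unstimulated (100%) and IFN-γ-only (0%) wells.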
Chain of human IDO1 (P14902 whole entry): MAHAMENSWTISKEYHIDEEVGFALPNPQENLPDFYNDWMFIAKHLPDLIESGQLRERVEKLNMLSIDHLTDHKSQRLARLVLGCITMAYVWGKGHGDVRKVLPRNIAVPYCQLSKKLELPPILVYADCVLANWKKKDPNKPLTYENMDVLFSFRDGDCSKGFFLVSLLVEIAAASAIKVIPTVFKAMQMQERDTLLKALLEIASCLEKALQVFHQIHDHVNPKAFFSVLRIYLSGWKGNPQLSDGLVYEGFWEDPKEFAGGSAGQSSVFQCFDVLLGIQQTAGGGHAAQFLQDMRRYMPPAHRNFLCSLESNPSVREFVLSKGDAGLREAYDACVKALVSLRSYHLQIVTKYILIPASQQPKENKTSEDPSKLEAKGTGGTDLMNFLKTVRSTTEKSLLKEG

By IC50 is commonly meant the concentration needed to halve the response being measured. Read a high IC50 as weaker potency. The molecule `CCCOc1ncc(Nc2cc(C(C)CC(=O)O)ccc2N(CC)C2CCOCC2)cn1` (single isomer, unassigned) [Example 621, 3-(4-(ethyl(tetrahydro-2H-pyran-4-yl)amino)-3-((2-propoxypyrimidin-5-yl)amino)phenyl)butanoic acid] showed an IC50 of under 50 nM. Molecule `CCN(c1ccc(C(C)CC(=O)O)cc1Nc1cnc(OC(C)C)nc1)C1CCOCC1` (single isomer, unassigned) [Example 622, 3-(4-(ethyl(tetrahydro-2H-pyran-4-yl)amino)-3-((2-isopropoxypyrimidin-5-yl)amino)phenyl)butanoic acid] registered an IC50 of over 50 nM. In the case of `CCOc1ccc(Nc2cc(C(C)CC(=O)O)ccc2N(CC)C2CCOCC2)nn1` (single isomer, unassigned) [Example 624, 3-(3-((6-ethoxypyridazin-3-yl)amino)-4-(ethyl (tetrahydro-2H-pyran-4-yl)amino)phenyl)butanoic acid] it was over 50 nM. Take `CCN(c1ccc(C(C)CC(=O)O)cc1Nc1ccc(C#N)cc1)C1CCOCC1` (single isomer, unassigned) [Example 625, 3-(3-((4-cyanophenyl)amino)-4-(ethyl(tetrahydro-2H-pyran-4-yl)amino)phenyl)butanoic acid]: the IC50 was under 5 nM.

`CCN(c1ccc(C(C)CC(=O)O)cc1Nc1cnc(OCC2CC2)nc1)C1CCOCC1` (single isomer, unassigned) [Example 626, 3-(3-((2-(cyclopropylmethoxy)pyrimidin-5-yl)amino)-4-(ethyl(tetrahydro-2H-pyran-4-yl)amino)phenyl)butanoic acid] returned an IC50 of under 50 nM. The molecule `CCN(c1ccc(C(C)CC(=O)O)cc1Nc1ccc(F)cc1)C1CCOCC1` (single isomer, unassigned) [Example 627, 3-(4-(ethyl(tetrahydro-2H-pyran-4-yl)amino)-3-((4-fluorophenyl)amino)phenyl) butanoic acid] registered an IC50 of under 5 nM. `CCN(c1ccc(C(C)CC(=O)O)cc1Nc1ccc2c(c1)OC(F)(F)O2)C1CCOCC1` (single isomer, unassigned) [Example 628, 3-(3-((2,2-difluorobenzo[d] [1,3]dioxol-5-yl)amino)-4-(ethyl(tetrahydro-2H-pyran-4-yl)amino)phenyl)butanoic acid] registered an IC50 of under 5 nM. `CCN(c1ccc(C(C)CC(=O)O)cc1Nc1ccc2nc(C)sc2c1)C1CCOCC1` (single isomer, unassigned) [Example 629, 3-(4-(ethyl(tetrahydro-2H-pyran-4-yl)amino)-3-((2-methylbenzo[d]thiazol-6-yl)amino)phenyl)butanoic acid] registered an IC50 of under 50 nM. As for `CCOc1cnc(Nc2cc(C(C)CC(=O)O)ccc2N(CC)C2CCOCC2)cn1` (single isomer, unassigned) [Example 630, 3-(3-((5-ethoxypyrazin-2-yl)amino)-4-(ethyl (tetrahydro-2H-pyran-4-yl)amino)phenyl)butanoic acid], the figure is under 50 nM; as for `CCOc1ccc(Nc2cc(C(C)CC(=O)O)ccc2N(CC)C2CCOCC2)nn1` (single isomer, unassigned) [Example 631, 3-(3-((6-ethoxypyridazin-3-yl)amino)-4-(ethyl (tetrahydro-2H-pyran-4-yl)amino)phenyl)butanoic acid], under 50 nM. Regarding `CCOc1ncc(Nc2cc(C(C)CC(=O)O)ccc2N(CC)C2CCOCC2)cn1` (single isomer, unassigned) [Example 632, 3-(3-((2-ethoxypyrimidin-5-yl)amino)-4-(ethyl (tetrahydro-2H-pyran-4-yl)amino)phenyl)butanoic acid], the IC50 is under 50 nM.

In the case of `CCC(CC(=O)O)c1ccc(N2CCN(C(=O)OC)CC2)c(Nc2ccc(C#N)cc2)c1` (single isomer, unassigned) [Example 668 Enantiomer 1, 3-(3-((4-Cyanophenyl)amino)-4-(4-(methoxycarbonyl)piperazin-1-yl)phenyl)pentanoic acid], the IC50 is over 50 nM.
